Laboratory results from paper PMC6521205 (Viruses, 2019).
Like-named read-outs stand apart in the source and are kept apart here.

What was measured:
human neural stem cells = experiment: CellTiter-Glo toxicity in mock-infected neural stem cells; details: mock-infected neural stem cells, 72 h, CellTiter-Glo, ± SE, n = 4
[1] = test system: ZIKV H/PAN/2016/BEI-259634; experiment: CellTiter-Glo activity assay, ZIKV H/PAN-infected neural stem cells; type: cell-based, Zika virus; details: read-out: EC50 H/PAN ZIKV
[2] = test system: ZIKV PRVABC59/Human/2015/Puerto Rico; experiment: CellTiter-Glo activity assay, ZIKV PRVABC59-infected neural stem cells; type: cell-based, Zika virus; details: for EC50: human neural stem cells, MOI 10, 72 h post-infection, CellTiter-Glo, ± SE, n = 4
[3] = test system: ZIKV H/PAN/2016/BEI-259634; experiment: Plaque assay of ZIKV titers from treated hNSC cultures; type: cell-based, Zika virus; details: human fetal neural stem cells, H/PAN MOI 0.1, 48 h post-infection
[4] = test system: ZIKV H/PAN/2016/BEI-259634; type: cell-based, Zika virus; details: GSC 387 cells, H/PAN MOI 10, 72 h post-infection
ZIKV RdRP = ZIKV RdRP (Zika virus, UniProt A0A024B7W1); experiment: Single nucleotide incorporation assay; type: biochemical; details: 150 µM nucleotide, 37 °C; for observed rate of incorporation, kobs: 1 µM RdRP, 200 nM P/T substrate, single exponential fit, n = 2
Chain of ZIKV RdRP (A0A024B7W1 2772-3423): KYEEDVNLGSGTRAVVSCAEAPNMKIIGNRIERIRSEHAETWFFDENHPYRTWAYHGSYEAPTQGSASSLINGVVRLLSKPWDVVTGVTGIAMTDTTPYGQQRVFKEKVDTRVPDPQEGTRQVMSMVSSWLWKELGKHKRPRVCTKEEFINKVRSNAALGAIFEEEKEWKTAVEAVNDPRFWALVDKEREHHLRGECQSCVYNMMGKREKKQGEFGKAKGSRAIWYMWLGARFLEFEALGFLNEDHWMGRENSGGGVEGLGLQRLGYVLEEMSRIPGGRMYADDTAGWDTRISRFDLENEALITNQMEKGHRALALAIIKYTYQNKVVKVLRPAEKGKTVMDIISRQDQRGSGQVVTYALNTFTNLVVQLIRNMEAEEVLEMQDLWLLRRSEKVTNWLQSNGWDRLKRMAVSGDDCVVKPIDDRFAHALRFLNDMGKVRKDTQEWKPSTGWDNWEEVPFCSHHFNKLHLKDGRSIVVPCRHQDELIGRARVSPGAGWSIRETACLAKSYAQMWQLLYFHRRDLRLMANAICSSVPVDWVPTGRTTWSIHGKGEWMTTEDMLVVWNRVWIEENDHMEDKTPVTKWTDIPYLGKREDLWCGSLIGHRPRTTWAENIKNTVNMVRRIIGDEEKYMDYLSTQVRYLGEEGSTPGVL

[5] = CellTiter-Glo toxicity in mock-infected neural stem cells; details: human
[6] = human neural stem cells, MOI 10, 72 h post-infection, CellTiter-Glo, ± SE, n = 4
[7] = Zika virus, Neural stem cell, in Homo sapiens

Row | Structure (SMILES) | CC50 (human neural stem cells) [µM] | EC50 [1, 6] [µM] | EC50 [2] [µM] | further results
1 | C#CC1(O)C(O)C(COP(=O)(NC(C)C(=O)OC(C)C)Oc2ccccc2)OC1n1ccc(=O)[nH]c1=O (centres unmarked) [2′-C-Ethynyluridine Aryloxy Phosphoramidate] | > 50 | 0.8 ± 1 | – | –
2 | CC(C)OC(=O)C(C)NP(=O)(OCC1OC(n2cnc3c(N)ncnc32)C(C)(O)C1O)Oc1ccccc1 (centres unmarked) [2′-C-Methyladenosine aryloxyl phosphoramidate] | 42 ± 1 | 18 ± 1 | 10 ± 1 | –
3 | CC(C)OC(=O)C(C)NP(=O)(OCC1OC(n2ccc(N)nc2=O)C(C)(O)C1O)Oc1ccccc1 (centres unmarked) [2′-C-Methylcytidine aryloxyl phosphoramidate] | – | > 50 | 48 ± 1 | –
4 | CC(C)OC(=O)C(C)NP(=O)(OCC1OC(n2ccc(=O)[nH]c2=O)C(C)(O)C1O)Oc1ccccc1 (centres unmarked) [2′-C-methyluridine aryloxyl phosphoramidate] | 47 ± 1 | 2 ± 1 | 1 ± 1 | ZIKV titers by plaque assay ([3]; 10 µM compound): undetectable levels; ZIKV titers by plaque assay ([3]; 30 µM compound): undetectable levels; protection from ZIKV-induced cytopathic effect ([4]; 10 µM compound): better able to protect against ZIKV-induced cytopathic effect; protection from ZIKV-induced cytopathic effect ([4]; 30 µM compound): able to protect against the cytopathic effect
5 | C[C@@]1(O)[C@H](O)[C@@H](COP(=O)(O)OP(=O)(O)OP(=O)(O)O)O[C@H]1n1ccc(=O)[nH]c1=O [2′-C-methyluridine triphosphate] | – | – | – | observed rate of incorporation, kobs (ZIKV RdRP): 0.016 ± 0.001 % incorporation min^−1; maximal incorporation (plateau) (ZIKV RdRP): 35%; time to half maximal incorporation (ZIKV RdRP): ~ 45 min
6 | COC1C(O)C(COP(=O)(NC(C)C(=O)OC(C)C)Oc2ccccc2)OC1n1ccc(N)nc1=O (centres unmarked) [2′-O-Methylcytidine aryloxyl phosphoramidate] | > 50 | > 50 | > 50 | –
7 | C[C@@]1(F)[C@H](O)[C@@H](COP(=O)(O)OP(=O)(O)OP(=O)(O)O)O[C@H]1n1ccc(=O)[nH]c1=O [2′-fluoro-2′-C-methyluridine triphosphate] | – | – | – | observed rate of incorporation, kobs (ZIKV RdRP): 0.0085 ± 0.001 % incorporation min^−1; maximal incorporation (plateau) (ZIKV RdRP): 15%; time to half maximal incorporation (ZIKV RdRP): ~90 min
8 | CC(C)OC(=O)C(C)NP(=O)(OCC1CC(O)C(n2cnc3c(N)ncnc32)O1)Oc1ccccc1 (centres unmarked) [3′-Deoxyadenosine aryloxyl phosphoramidate] | > 50 | > 50 | > 50 | –
9 | CC(C)OC(=O)C(C)NP(=O)(OCC1CC(O)C(n2ccc(N)nc2=O)O1)Oc1ccccc1 (centres unmarked) [3′-Deoxycytidine aryloxyl phosphoramidate] | > 50 | > 50 | > 50 | –
10 | COC1C(COP(=O)(NC(C)C(=O)OC(C)C)Oc2ccccc2)OC(n2ccc(=O)[nH]c2=O)C1O (centres unmarked) [3′-O-Methyluridine aryloxyl phosphoramidate] | > 50 | > 50 | > 50 | –
11 | CSCCOP(=O)(NCCc1c[nH]c2ccccc12)OCC1OC(n2ccc(=O)[nH]c2=O)C(C)(O)C1O (centres unmarked) [(5-(2,4-dioxo-3,4-dihydropyrimidin-1(2H)-yl)-3,4-dihydroxy-4-methyltetrahydrofuran-2-yl)methyl (2-(methylthio)ethyl) (2-(1H-indol-3-yl)ethyl)phosphoramidate] | – | – | – | CC50 at 72 h ([5]; mock-infected neural stem cells (NSCs)): > 50 µM; EC50 [2, 7]: > 50 µM; anti-ZIKV activity (in words) ([2]; neural stem cells, PRVABC59 and H/PAN strains, highest concentration 50 µM): completely abolished activity; EC50 ([1]; Zika virus, Neural stem cell, human neural stem cells, MOI 10, 72 h post-infection, CellTiter-Glo, ± SE, n = 4): > 50 µM
12 | CC(C)OC(=O)[C@H](C)N[P@](=O)(OC[C@H]1O[C@@H](n2ccc(=O)[nH]c2=O)[C@](C)(F)[C@@H]1O)Oc1ccccc1 [Sofosbuvir, reference compound] | – | – | – | CC50 at 72 h [5]: > 50 µM; EC50 [2, 7]: 35 ± 1 µM; EC50 ([1]; Zika virus, Neural stem cell, 72 h): 46 ± 1 µM; ZIKV titers by plaque assay ([3]; 30 µM compound): undetectable levels; protection from ZIKV-induced cytopathic effect ([4]; 30 µM compound): able to protect against the cytopathic effect
13 | O=c1ccn([C@@H]2O[C@H](COP(=O)(O)OP(=O)(O)OP(=O)(O)O)[C@@H](O)[C@H]2O)c(=O)[nH]1 [UTP] | – | – | – | observed rate of incorporation, kobs (ZIKV RdRP): 0.151 ± 0.004 % incorporation min^−1; time to full incorporation (ZIKV RdRP): ~ 30 min; time to half maximal incorporation (ZIKV RdRP): ≤ 5 min
